# Data taken from US20190337921A1, “TETRASUBSTITUTED ALKENE COMPOUNDS AND THEIR USE” (Eisai R&D Management Co., Ltd., priority 2016, published 2019).
# Legend:
# [1] = tested on: MCF7 cells with ectopic expression of ERα Y537S/N/C, D538G; experiment: In vitro proliferation of wild-type and mutant ER-bearing MCF7 lines with clinical therapies (FIG. 1); type: cell-based, human
# Experimental: 48 h post-transfection, virus containing media was filtered and added to MCF7 cells in the presence of 8 μg/ml polybrene overnight. Two days following infection, cells were placed under selection with 10 μg/ml blasticidin for 2 weeks for stable expression.
# In parallel, cells were also seeded in a separate 96-well plate (8 wells/cell line, control plate) for which a CTG (CellTiter-Glo® Luminescent Viability Assay, Promega, Cat #G7572) was measured the following day (day 0 reading). The day 0 reading was used for the GI50 calculation at the termination of the experiment. The day following seeding, compounds were added to assay plates. Briefly, a 1:4 serial dilution was prepared in DMSO at 200× final concentration for a total of 10 concentrations (9 dilutions containing compound and one is DMSO only). Serially diluted compounds were pipetted into medium to prepare a compound-medium mix at 10× final concentration. 10 μl of compound-medium mix was added to MCF7-WT and —Y537S cells at 3 wells/concentration (triplicate for each concentration). On day 3, media-compound was removed and replaced with fresh media/compound as described above. On day 6. CTG was measured and compared to day 0 readings from control plate to assess GI50.
# [2] = tested on: MCF7-WT cells (WT ER, MCF7.6); experiment: In vitro proliferation (viability) assay, CellTiter-Glo, MCF7-WT; type: cell-based; conditions: Homo sapiens, CTG on day 6 compared to day 0, read-out: WT ER CTGlo MCF7.6 GI50 Mean
# Experimental: (§1) MCF7 BUS cells (Coser, et al., (2003) PNAS 100(24): 13994-13999) were maintained in Dulbecco's Modified Eagle Medium supplemented with 10%/o FBS, 4 mM L-glutamine and 1× non-essential amino acids. Lenti-X 293T cells (Clontech, Cat #632180) were routinely cultured in Dulbecco's Modified Eagle Medium supplemented with 10% FBS.
# (§2) The QuikChange II XL Site-Directed Mutagenesis Kit (Agilent Technologies, Cat #200523) was used to generate Y537S, Y537C, Y537N and D538G mutations within the ERα exon 8. […]
# (§3) MCF7-WT and —Y537S cells were seeded at 1500 cells/well in black-walled 96-well plates (assay plates. Costar, Cat #3904). In parallel, cells were also seeded in a separate 96-well plate (8 wells/cell line, control plate) for which a CTG (CellTiter-Glo® Luminescent Viability Assay, Promega, Cat #G7572) was measured the following day (day 0 reading). The day 0 reading was used for the GI50 calculation at the termination of the experiment. […] CTG was measured and compared to day 0 readings from control plate to assess GI50.
# [3] = tested on: MCF7-Y537S cells (Y537S ER, MCF7.7); experiment: In vitro proliferation (viability) assay, CellTiter-Glo, MCF7-Y537S; type: cell-based; conditions: Homo sapiens, CTG on day 6 compared to day 0, read-out: Y537S ER CTGlo MCF7.7 GI50 Mean
# Experimental: as §1, §2, §3
GI50 [2] [nM],GI50 [3] [nM],Compound,Resistance of ERα mutant-bearing MCF7 lines relative to control lines [1]
,,C[C@]12CC[C@@H]3c4ccc(O)cc4C[C@@H](CCCCCCCCC[S+]([O-])CCCC(F)(F)C(F)(F)F)[C@H]3[C@@H]1CC[C@@H]2O (some centres unmarked) [fulvestrant],phenotypic resistance
,,O=C(c1ccc(OCCN2CCCCC2)cc1)c1c(-c2ccc(O)cc2)sc2cc(O)ccc12 [raloxifene],phenotypic resistance
,,CC/C(=C(\c1ccccc1)c1ccc(OCCN(C)C)cc1)c1ccccc1 [tamoxifen],phenotypic resistance
1.75,27.5,"CC/C(=C(/c1ccc(OCCNC/C=C/C(=O)N(C)C)cc1)c1ccc2[nH]ccc2c1)c1ccccc1 [Compound 102, (E)-4-(2-(4-((E)-1-(1H-indol-5-yl)-2-phenylbut-1-enyl)phenoxy)ethylamino)-N,N-dimethylbut-2-enamide]",
